Data reported in PubChem BioAssay AID2060896 (Molecular Pharmacology Branch, DTP, NCI, 2025).
pIC50: −log10 of the molar value. Each block holds one compound with its values, some of them ahead of it.

Test system: 941728-121-R-J1-PDC complex spheroid viability
Assay: Anticancer human tumor 941728-121-R-J1-PDC patient-derived lung adenocarcinoma cell line growth inhibition [RAS]
Settings: for pIC50: curve of first compound; for viability, T/C: stronger effect = lower value
Method in brief: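 Multi-cell-type spheroids: tumor cells plus HUVEC endothelial cells and mesenchymal stem cells. RAS-pathway inhibitors were combined with targeted agents, each dosed in half-log steps down from clinical Cmax, or from 10 microM when Cmax was unknown.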

[1] = second compound 0.000949 µM, first compound 0.0316 µM
[2] = second compound 0.000949 µM, first compound 0.1 µM
[3] = second compound 0.000949 µM, first compound 0.316 µM
[4] = second compound 0.000949 µM, first compound 1 µM
[5] = second compound 0.000949 µM, first compound 3.16 µM
[6] = second compound 0.000949 µM, first compound 10 µM
[7] = second compound 0.003 µM, first compound 0.0316 µM
[8] = second compound 0.003 µM, first compound 0.1 µM
[9] = second compound 0.003 µM, first compound 0.316 µM
[10] = second compound 0.003 µM, first compound 1 µM
[11] = second compound 0.003 µM, first compound 3.16 µM
[12] = second compound 0.003 µM, first compound 10 µM
[13] = second compound 0.00949 µM, first compound 0.0316 µM
[14] = second compound 0.00949 µM, first compound 0.1 µM
[15] = second compound 0.00949 µM, first compound 0.316 µM
[16] = second compound 0.00949 µM, first compound 1 µM
[17] = second compound 0.00949 µM, first compound 3.16 µM
[18] = second compound 0.00949 µM, first compound 10 µM
[19] = second compound 0.03 µM, first compound 0.0316 µM
[20] = second compound 0.03 µM, first compound 0.1 µM
[21] = second compound 0.03 µM, first compound 0.316 µM
[22] = second compound 0.03 µM, first compound 1 µM
[23] = second compound 0.03 µM, first compound 3.16 µM
[24] = second compound 0.03 µM, first compound 10 µM
[25] = second compound 0.0949 µM, first compound 0.0316 µM
[26] = second compound 0.0949 µM, first compound 0.1 µM
[27] = second compound 0.0949 µM, first compound 0.316 µM
[28] = second compound 0.0949 µM, first compound 1 µM
[29] = second compound 0.0949 µM, first compound 3.16 µM
[30] = second compound 0.0949 µM, first compound 10 µM
[31] = second compound 0.3 µM, first compound 0.0316 µM
[32] = second compound 0.3 µM, first compound 0.1 µM
[33] = second compound 0.3 µM, first compound 0.316 µM
[34] = second compound 0.3 µM, first compound 1 µM
[35] = second compound 0.3 µM, first compound 3.16 µM
[36] = second compound 0.3 µM, first compound 10 µM
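Also: spheroids exposed to compounds for 7 days before readout.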
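For viability, T/C in this document: 100% = DMSO vehicle control viability.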

pIC50 (second compound 0.000949 µM): > 7.50
pIC50 (second compound 0.003 µM): > 7.50
pIC50 (second compound 0.00949 µM): > 7.50
pIC50 (second compound 0.03 µM): > 7.50
pIC50 (second compound 0.0949 µM): > 7.50
pIC50 (second compound 0.3 µM): > 7.50
SMILES: CC1(O)CCCC1n1c(=O)c(C(F)F)cc2cnc(NC3CCN(S(C)(=O)=O)CC3)nc21 (centres undefined) + CCn1c(-c2cc(N3CCN(C)CC3)cnc2C(C)OC)c2c3cc(ccc31)-c1csc(n1)CC(NC(=O)C1CC1C)C(=O)N1CCCC(N1)C(=O)OCC(C)(C)C2
viability, T/C [1]: 28.6%
viability, T/C [2]: 30.3%
viability, T/C [3]: 24.8%
viability, T/C [4]: 38.3%
viability, T/C [5]: 34.9%
viability, T/C [6]: 31.3%
viability, T/C [7]: 24.4%
viability, T/C [8]: 20.1%
viability, T/C [9]: 18.4%
viability, T/C [10]: 22.3%
viability, T/C [11]: 23.3%
viability, T/C [12]: 26.9%
viability, T/C [13]: 16.5%
viability, T/C [14]: 13.6%
viability, T/C [15]: 15.9%
viability, T/C [16]: 17.5%
viability, T/C [17]: 15.6%
viability, T/C [18]: 28.4%
viability, T/C [19]: 13.4%
viability, T/C [20]: 12.6%
viability, T/C [21]: 13.5%
viability, T/C [22]: 14.4%
viability, T/C [23]: 9.96%
viability, T/C [24]: 27.3%
viability, T/C [25]: 11.1%
viability, T/C [26]: 14.5%
viability, T/C [27]: 14.3%
viability, T/C [28]: 14.8%
viability, T/C [29]: 9.56%
viability, T/C [30]: 27.7%
viability, T/C [31]: 10.4%
viability, T/C [32]: 11.6%
viability, T/C [33]: 13.3%
viability, T/C [34]: 15.2%
viability, T/C [35]: 12.2%
viability, T/C [36]: 23.8%

pIC50 (second compound 0.000949 µM): > 7.50
pIC50 (second compound 0.003 µM): > 7.50
pIC50 (second compound 0.00949 µM): > 7.50
pIC50 (second compound 0.03 µM): > 7.50
pIC50 (second compound 0.0949 µM): > 7.50
pIC50 (second compound 0.3 µM): > 7.50
SMILES: CCC(CC)c1cc(NC2CCC(N)C2)n2nccc2n1 (centres undefined) + CCn1c(-c2cc(N3CCN(C)CC3)cnc2C(C)OC)c2c3cc(ccc31)-c1csc(n1)CC(NC(=O)C1CC1C)C(=O)N1CCCC(N1)C(=O)OCC(C)(C)C2
viability, T/C [1]: 29.4%
viability, T/C [2]: 28.1%
viability, T/C [3]: 27.6%
viability, T/C [4]: 32.5%
viability, T/C [5]: 15%
viability, T/C [6]: 41.4%
viability, T/C [7]: 23.7%
viability, T/C [8]: 21.6%
viability, T/C [9]: 20.7%
viability, T/C [10]: 26.8%
viability, T/C [11]: 12.4%
viability, T/C [12]: 39.3%
viability, T/C [13]: 18%
viability, T/C [14]: 16.2%
viability, T/C [15]: 20.5%
viability, T/C [16]: 24.7%
viability, T/C [17]: 14.5%
viability, T/C [18]: 41.5%
viability, T/C [19]: 14.8%
viability, T/C [20]: 15.4%
viability, T/C [21]: 19%
viability, T/C [22]: 21.2%
viability, T/C [23]: 19.3%
viability, T/C [24]: 51%
viability, T/C [25]: 14.2%
viability, T/C [26]: 15%
viability, T/C [27]: 16.5%
viability, T/C [28]: 21.4%
viability, T/C [29]: 18.7%
viability, T/C [30]: 50.8%
viability, T/C [31]: 13.3%
viability, T/C [32]: 15.2%
viability, T/C [33]: 17.8%
viability, T/C [34]: 20%
viability, T/C [35]: 13.1%
viability, T/C [36]: 49.1%
